According to PMC8769072, “Proteome‐scale mapping of binding sites in the unstructured regions of the human proteome” (Molecular Systems Biology, 2022):

Test system: immobilized GST-tagged bait protein domains
Experiment: ProP-PD phage selections (HD2 P8, sublibraries, HD2 P3, HD1 P8) with NGS and confidence level
Assay type: binding, human
Conditions: for HD confidence / HD count proportions / HD mean counts: library HD; for HD count proportions: mean normalised NGS counts; for HD mean counts: mean raw NGS counts, all selections
[1] = library HD2, bait EPS15_EH__P42566_121_215, whether the validated benchmark motif instance was recovered in the ProP-PD selection (TRUE/FALSE)
[2] = bait KPNA4_Arm (O00629 68-487), HD2 library, benchmark motif instance recovered in the ProP-PD selection (TRUE/FALSE)
[3] = HD2 library, bait SUMO1_SUMO__P63165_1_101, known motif instance of the benchmarking set found (TRUE) or not found (FALSE) among selected peptides
[4] = library HD2, bait WDR5_WD_1234567_P61964_21_334, validated benchmark motif instance, in_library_check TRUE, TRUE/FALSE = instance recovered in ProP-PD selection
[5] = bait AP2B1_adaptin__P63010_700_937
[6] = bait MAP1LC3A_ATG8 (Q9H492 2-121), HD2 library, benchmark motif instance recovered in the ProP-PD selection (TRUE/FALSE)
[7] = bait CLTC_Clathrin-propeller__Q00610_1_364, library HD2, benchmarking set of validated motif instances, TRUE = motif instance recovered in the ProP-PD selection

In the case of LNPFLTKSSGDVHLSI, the best_specificity (library HD2, bait EPS15_EH__P42566_121_215, best matching peptide) is reported as 1, the best_confidence (library HD2, bait EPS15_EH__P42566_121_215, confidence level of best matching peptide (4 High, 2-3 Medium, 1 Low)) is reported as 4 and the motif_found [1] is reported as “TRUE”.

With QELLSVGSKRRRTGGSLRGN the motif_found [2] was “FALSE”.

Substance GPPSLNYIPPVLQLSG has a best_specificity (bait CEP55_EABR__Q53EZ4_160_217, library HD2, best matching peptide) of 1 and a best_confidence (bait CEP55_EABR__Q53EZ4_160_217, library HD2, confidence level of best matching peptide (4 = High, 2 or 3 = Medium, 1 = Low)) of 2.

For GLAFGAFTNPFTAPAAQSP, the motif_found [1] was “FALSE”.

With CRRPLSRTRNPADGIPAPESSS the motif_found (HD2 library, bait TNKS_TANK-peptide-bind__O95271_174_649, known motif instance of the benchmarking set found (TRUE) or not found (FALSE) among selected peptides) was “FALSE”.

In the case of RRMPAANLIQAAWRLYSTD [KCNQ4 338-356], the motif_found (HD2 library, bait CALM1_EF-hand__P0DP23_2_149, benchmark motif instance, in_library_check FALSE, in_library_coverage 0) is reported as “FALSE”.

With PGADVVDLTLDSSSSS the best_confidence (bait SUMO1_SUMO__P63165_1_101, HD2 library, confidence level (1-4) of best matching selected peptide) was 2, the best_specificity (bait SUMO1_SUMO__P63165_1_101, HD2 library, specificity score of best matching selected peptide) was 1 and the motif_found (bait SUMO1_SUMO__P63165_1_101, HD2 library, whether the validated benchmark motif instance was recovered in the ProP-PD selection (TRUE/FALSE)) was “TRUE”.

With LYKEATSTFTNITYRGT----- the motif_found (HD2 library, bait TLN1_PTB__Q9Y490_309_401, known motif instance of the benchmarking set found (TRUE) or not found (FALSE) among selected peptides) was “FALSE”.

For DAPIILSDSEEEEMIILEPDKNPKK, the motif_found [3] was “FALSE”.

With PGGTRIIYDRKFLLDRRNSPM the motif_found (library HD2, bait EIF4E_eIF4E__P06730_1_217, whether the validated benchmark motif instance was recovered in the ProP-PD selection (TRUE/FALSE)) was “FALSE”.

AQSPLPSTNPFQPNGLAPG was tested, and the motif_found [1] was “FALSE”.

With LMINPTGCARSEPKILTHYKR the motif_found [4] was “FALSE”.

“TNAYKLPLAVGPPSLNYIPPVLQLS,LAVGPPSLNYIPP [TEX14]” was tested, and the motif_found (bait CEP55_EABR__Q53EZ4_160_217, library HD2, benchmarking set of validated motif instances, TRUE = motif instance recovered in the ProP-PD selection) was “TRUE”.

In the case of ETRICKIYDSPCLPEAEAMFA, the motif_found (library HD2, bait YES1_SH3__P07947_90_152, validated benchmark motif instance, in_library_check TRUE, TRUE/FALSE = instance recovered in ProP-PD selection) is reported as “FALSE”.

In the case of EPSTTPNNWADFSSTW, the HD confidence [5] is reported as 3, the HD2 confidence (bait AP2B1_adaptin__P63010_700_937, library HD2 P8) is reported as 4 and the HD2_endomembrane confidence (bait AP2B1_adaptin__P63010_700_937, library HD2 P8 endomembrane) is reported as 4. The HD count proportions [5] was 0.0006275 and the HD mean counts [5] was 1.5.

AAAVRMNIQMLLEAADYLERREREA was tested, and the motif_found (bait SIN3A_PAH__Q96ST3_295_383, HD2 library, whether the validated benchmark motif instance was recovered in the ProP-PD selection (TRUE/FALSE)) was “FALSE”.

Work on FADFSTLSKVNNEDPF yielded an HD confidence [5] of 3, an HD count proportions [5] of 0.0005532 and an HD mean counts [5] of 1.25.

For DTGKENEMDWDDSALTITVNPMET, the motif_found (library HD2, bait KLC1_TPR__Q07866_203_497, whether the validated benchmark motif instance was recovered in the ProP-PD selection (TRUE/FALSE)) was “FALSE”.

APLEEEIFPSPPPPPEEEG was tested, and the motif_found (library HD2, bait VASP_EVH1__P50552_1_114, validated benchmark motif instance, in_library_check TRUE, TRUE/FALSE = instance recovered in ProP-PD selection) was “FALSE”.

In the case of NYCPPVKRERTSSL, the motif_found [2] is reported as “FALSE”.

With AKNGAASKRAFKQSPPAVPALGAGVKKRRHGDEDTYY the motif_found [2] was “FALSE”.

For DRHRIEEKRKRTYETFKSIMK [RELA 301-307], the motif_found (HD2 library, bait KPNA4_Arm__O00629_68_487, benchmark motif instance, in_library_check FALSE, in_library_coverage 0) was “FALSE”.

DWSNLVDAAKAYEVQR showed an HD2-1mM_CaCl confidence (bait CALM1 EF-hand (P0DP23, 2-149), HD2 library selection with 1mM_CaCl, confidence level (4 = High, 2 or 3 = Medium, 1 = Low)) of 2 and an HD2 confidence (bait CALM1 EF-hand (P0DP23, 2-149), HD2 library selection, confidence level (4 = High, 2 or 3 = Medium, 1 = Low)) of 3.

For ESGSLEDDWDFLPPKKIKD, the motif_found [6] was “FALSE” and the motif_found (bait MAP1LC3B_ATG8 (Q9GZQ8 2-119), HD2 library, benchmark motif instance recovered in the ProP-PD selection (TRUE/FALSE)) was “FALSE”.

For LPLEFSDDLDVVGDGMQC, the motif_found [4] was “FALSE”.

With QSKPLVDIDLISFDDD the HD2_nc confidence (bait CLTC_Clathrin-propeller__Q00610_1_364, HD2 P8 nucleocytoplasmic sublibrary, confidence level (4 = High, 2-3 = Medium, 1 = Low)) was 4, the HD2_nc mean counts (bait CLTC_Clathrin-propeller__Q00610_1_364, HD2 P8 nucleocytoplasmic sublibrary, mean NGS counts over replicate selections) was 25.67 and the HD2_nc count proportions (bait CLTC_Clathrin-propeller__Q00610_1_364, HD2 P8 nucleocytoplasmic sublibrary, mean proportion of NGS counts) was 0.0005729.

With PVLEKDDLMDMDASQQNLF [HIP1] the motif_found [7] was “FALSE”.

For LSELDRLLLELN, the motif_found (bait PTK2_Focal-AT__Q05397_891_1050, HD2 library, whether the validated benchmark motif instance was recovered in the ProP-PD selection (TRUE/FALSE)) was “FALSE”.

For DDDSSKDSGFTIVSPL, the motif_found [6] was “TRUE”, the best_confidence (bait MAP1LC3A_ATG8 (Q9H492 2-121), HD2 library, confidence level (1-4) of best matching peptide) was 2 and the best_specificity (bait MAP1LC3A_ATG8 (Q9H492 2-121), HD2 library, specificity score of best matching peptide) was 1.

PLTKDVSLLDLDDFNPVST [AP3B1] was tested, and the motif_found [7] was “FALSE”.

VIGSADCNVIEIDDTLDDSDED was tested, and the motif_found [3] was “FALSE”.

For AEERVVVISSSE, the motif_found [3] was “FALSE”.
